Results as given in publication PMC9271048, “Probing strigolactone perception mechanisms with rationally designed small-molecule agonists stimulating germination of root parasitic weeds” (Nature Communications, 2022).
Read-outs that look alike come from different tables or passages of the source.

Key:
[1] = target: T1, ShHTL7 (Striga hermonthica, UniProt A0A0M3PNA2); assay: biochemical; type: binding; conditions: Supplementary Table 7; binding affinities between ShHTL7 and agonists by SPR; read-out: KD/μM
T1 sequence (A0A0M3PNA2 entry or part of it): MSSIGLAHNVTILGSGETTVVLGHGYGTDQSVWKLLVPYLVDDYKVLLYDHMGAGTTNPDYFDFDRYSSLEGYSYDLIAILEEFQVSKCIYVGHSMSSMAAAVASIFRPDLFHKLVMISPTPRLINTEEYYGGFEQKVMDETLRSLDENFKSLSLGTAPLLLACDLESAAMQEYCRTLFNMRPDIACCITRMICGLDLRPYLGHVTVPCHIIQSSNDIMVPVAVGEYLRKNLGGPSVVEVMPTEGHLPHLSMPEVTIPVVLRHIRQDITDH
Procedure, shortened: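 Surface plasmon resonance was run at 25 °C on ShHTL7 immobilized by amine coupling, using phosphate-buffered saline with 0.05% P20 and 0.5% DMSO. Each injection had 1 min association and 1 min dissociation, with a 50 μM screen followed by concentration series. KD was derived by kinetic analysis or steady-state affinity.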

[2] = test system: PaKAI2s (5 KAI2 protein homologs in P. aegyptiaca); assay: YLG-based competition assay on KAI2 protein homologs of P. aegyptiaca; type: biochemical, Phelipanche aegyptiaca; conditions: Supplementary Fig. 27
Procedure, shortened: (§1)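 Competition with fluorogenic substrate YLG ([…]) for hydrolysis by each HTL or KAI2 protein; fluorescence (Ex 480/Em 520 nm) recorded every 1 min for 30 min. Linear 8-min increase, background hydrolysis subtracted, used; IC50 from fitted relative inhibition versus concentration.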

[3] = test system: ShHTLs (10 HTL proteins in S. hermonthica); assay: YLG-based competition assay on HTL proteins of S. hermonthica; type: biochemical, Striga hermonthica; conditions: Supplementary Fig. 27
Procedure, shortened: as §1

[4] = Chemical reactivity analysis (HPLC, methanol/PBS pH 7.4); type: physicochemical
Procedure, shortened: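 Samples were diluted into 10 mM PBS pH 7.4 with methanol and kept at 26 ± 1 °C. The remaining compound was followed by C18 HPLC (CH3CN/H2O 50:50 with 0.1% HCO2H, 1 mL/min). Half-lives were derived from the percentage remaining, calculated from peak areas.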

[5] = target: T1, ShHTL7; assay: Competitive inhibition of ShHTL7 with Yoshimulactone Green (YLG) as substrate; type: biochemical
Procedure, shortened: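 YLG hydrolysis by ShHTL7 followed by fluorescence (ex 480/em 520 nm) every 1 min for 30 min; compounds and YLG from fresh DMSO stocks. After subtracting no-enzyme background, the linear 8-min increase was used; IC50 fitted from relative inhibition versus compound concentration.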

SMILES: CC1=CC(OC(=O)N2CCN(C(=O)COc3ccc(Br)cc3C)CC2)N(C)C1=O (stereo not drawn) [4h]
- Kd [1]: 12.1 ± 0.94 µM
- IC50 ([2]; KAI2C, YLG competition, read-out: IC50, replicate 1): 23.3 µM
- IC50 ([2]; KAI2C, YLG competition, read-out: IC50, replicate 2): 36.9 µM
- IC50 ([2]; KAI2C, YLG competition, read-out: IC50, replicate 3): 38.5 µM
- IC50 ([2]; KAI2C, average of 3 replicates, read-out: IC50, average): 32.9 µM
- IC50 ([2]; KAI2d1, YLG competition, read-out: IC50, replicate 1): 24.7 µM
- IC50 ([2]; KAI2d1, YLG competition, read-out: IC50, replicate 2): 22.1 µM
- IC50 ([2]; KAI2d1, YLG competition, read-out: IC50, replicate 3): 27.9 µM
- IC50 ([2]; KAI2d1, average of 3 replicates, read-out: IC50, average): 24.9 µM
- IC50 ([2]; KAI2d2, YLG competition, read-out: IC50, replicate 1): 71.4 µM
- IC50 ([2]; KAI2d2, YLG competition, read-out: IC50, replicate 2): 67.3 µM
- IC50 ([2]; KAI2d2, YLG competition, read-out: IC50, replicate 3): 71.7 µM
- IC50 ([2]; KAI2d2, average of 3 replicates, read-out: IC50, average): 70.1 µM
- IC50 ([2]; KAI2d3, YLG competition, read-out: IC50, replicate 1): 30.6 µM
- IC50 ([2]; KAI2d3, YLG competition, read-out: IC50, replicate 2): 41.8 µM
- IC50 ([2]; KAI2d3, YLG competition, read-out: IC50, replicate 3): 41.3 µM
- IC50 ([2]; KAI2d3, average of 3 replicates, read-out: IC50, average): 37.9 µM
- IC50 ([2]; KAI2d4, YLG competition, read-out: IC50, replicate 1): > 100 µM
- IC50 ([2]; KAI2d4, YLG competition, read-out: IC50, replicate 2): > 100 µM
- IC50 ([2]; KAI2d4, YLG competition, read-out: IC50, replicate 3): > 100 µM
- IC50 ([2]; KAI2d4, average of 3 replicates, read-out: IC50, average): > 100 µM
- IC50 ([3]; ShHTL2, YLG competition, read-out: IC50, replicate 1): 72.3 µM
- IC50 ([3]; ShHTL2, YLG competition, read-out: IC50, replicate 2): 78.3 µM
- IC50 ([3]; ShHTL2, YLG competition, read-out: IC50, replicate 3): 79.2 µM
- IC50 ([3]; ShHTL2, average of 3 replicates, read-out: IC50, average): 76.6 µM
- IC50 ([3]; ShHTL3, YLG competition, read-out: IC50, replicate 1): > 100 µM
- IC50 ([3]; ShHTL3, YLG competition, read-out: IC50, replicate 2): > 100 µM
- IC50 ([3]; ShHTL3, YLG competition, read-out: IC50, replicate 3): > 100 µM
- IC50 ([3]; ShHTL3, average of 3 replicates, read-out: IC50, average): > 100 µM
- IC50 ([3]; ShHTL4, YLG competition, read-out: IC50, replicate 1): 12.7 µM
- IC50 ([3]; ShHTL4, YLG competition, read-out: IC50, replicate 2): 14.6 µM
- IC50 ([3]; ShHTL4, YLG competition, read-out: IC50, replicate 3): 8.97 µM
- IC50 ([3]; ShHTL4, average of 3 replicates, read-out: IC50, average): 12.1 µM
- IC50 ([3]; ShHTL5, YLG competition, read-out: IC50, replicate 1): 32.9 µM
- IC50 ([3]; ShHTL5, YLG competition, read-out: IC50, replicate 2): 39.4 µM
- IC50 ([3]; ShHTL5, YLG competition, read-out: IC50, replicate 3): 42.1 µM
- IC50 ([3]; ShHTL5, average of 3 replicates, read-out: IC50, average): 38.1 µM
- IC50 ([3]; ShHTL6, YLG competition, read-out: IC50, replicate 1): > 100 µM
- IC50 ([3]; ShHTL6, YLG competition, read-out: IC50, replicate 2): > 100 µM
- IC50 ([3]; ShHTL6, YLG competition, read-out: IC50, replicate 3): > 100 µM
- IC50 ([3]; ShHTL6, average of 3 replicates, read-out: IC50, average): > 100 µM
- IC50 ([3]; ShHTL8, YLG competition, read-out: IC50, replicate 1): 65.9 µM
- IC50 ([3]; ShHTL8, YLG competition, read-out: IC50, replicate 2): 81.2 µM
- IC50 ([3]; ShHTL8, YLG competition, read-out: IC50, replicate 3): 80.4 µM
- IC50 ([3]; ShHTL8, average of 3 replicates, read-out: IC50, average): 75.8 µM
- IC50 ([3]; ShHTL9, YLG competition, read-out: IC50, replicate 1): > 100 µM
- IC50 ([3]; ShHTL9, YLG competition, read-out: IC50, replicate 2): > 100 µM
- IC50 ([3]; ShHTL9, YLG competition, read-out: IC50, replicate 3): > 100 µM
- IC50 ([3]; ShHTL9, average of 3 replicates, read-out: IC50, average): > 100 µM
- IC50 ([3]; ShHTL10, YLG competition, read-out: IC50, replicate 1): 47.3 µM
- IC50 ([3]; ShHTL10, YLG competition, read-out: IC50, replicate 2): 41.8 µM
- IC50 ([3]; ShHTL10, YLG competition, read-out: IC50, replicate 3): 41.6 µM
- IC50 ([3]; ShHTL10, average of 3 replicates, read-out: IC50, average): 43.6 µM
- IC50 ([3]; ShHTL11, YLG competition, read-out: IC50, replicate 1): > 100 µM
- IC50 ([3]; ShHTL11, YLG competition, read-out: IC50, replicate 2): > 100 µM
- IC50 ([3]; ShHTL11, YLG competition, read-out: IC50, replicate 3): > 100 µM
- IC50 ([3]; ShHTL11, average of 3 replicates, read-out: IC50, average): > 100 µM
- half-life time (t1/2) ([4]; 1:3 methanol and PBS (10 mM) pH 7.4, HPLC): 1.1 h
- half-life time (t1/2), source data average ([4]; Supplementary Fig. 10 source data, methanol/PBS pH 7.4, 26 °C): 1.095 h
- IC50 ([5]; ShHTL7, YLG competition, Supplementary Fig. 27, read-out: IC50, replicate 1): 4.33 µM
- IC50 ([5]; ShHTL7, YLG competition, Supplementary Fig. 27, read-out: IC50, replicate 2): 5.43 µM
- IC50 ([5]; ShHTL7, YLG competition, Supplementary Fig. 27, read-out: IC50, replicate 3): 4.75 µM
- IC50 ([5]; wild-type ShHTL7, average of 3, source data of Fig. 2a,b, Supplementary Figs. 8a, 9a, 20b, read-out: IC50, competitive ShHTL7 inhibition (YLG), source data average): 4.84 µM
